The values below come from patent US20070191397A1, “Fungicidal mixtures based on oxime ether derivatives” (priority 2004, published 2007).

One experiment deals with Puccinia recondita. Nature of the experiment: Curative action against brown rust of wheat caused by Puccinia recondita. Type of experiment: in vivo. As to conditions: wheat cultivar Kanzler, 7 days. How it is done: (§1) The active compounds, separately or jointly, were prepared as a stock solution with 0.25% by weight of active compound in acetone or DMSO. 1% by weight of the emulsifier Uniperol® EL (wetting agent having emulsifying and dispersing action based on ethoxylated alkylphenols) was added to this solution, and the solution was diluted with water to the desired concentration.
(§2) Evaluation was carried out by determining the infected leaf areas in percent. These percentages were converted into efficacies. The efficacy (E) is calculated as follows using Abbot's formula: E=(1−α/β)·100 α corresponds to the fungicidal infection of the treated plants in % and β corresponds to the fungicidal infection of the untreated (control) plants in %
(§3) An efficacy of 0 means that the infection level of the treated plants corresponds to that of the untreated control plants; an efficacy of 100 means that the treated plants were not infected.
(§4) The expected efficacies of the mixtures of active compounds are determined using Colby's formula [R.S. Colby, Weeds 15, 20-22 (1967)] and compared with the observed efficacies. Colby's formula: E=x+y−x·y/100 E expected efficacy, expressed in % of the untreated control, when using the mixture of the active compounds A and B at the concentrations a and b x efficacy, expressed in % of the untreated control, when using active compound A at the concentration a y efficacy, expressed in % of the untreated control, when using active compound B at the concentration b
Leaves of wheat seedlings of the cultivar “Kanzler”, grown in pots, were dusted with spores of brown rust (Puccinia recondita). The pots were then placed in the chamber with high atmospheric humidity (90-95%), at 20-22° C., for 24 hours. During this time the spores germinated and the germinal tubes penetrated into the leaf tissue. The next day, the infected plants were sprayed to runoff point with an aqueous suspension having the concentration of active compounds stated below. After the spray coating had dried on, the test plants were cultivated in a greenhouse at 20-22° C. and 65-70% relative atmospheric humidity for 7 days. Thereafter, the extent of the rust fungus development on the leaves was determined.

In experiment [1] the test system is Erysiphe [syn. Blumeria] graminis form a specialis tritici. Briefly: Activity against mildew of wheat caused by Erysiphe [syn. Blumeria] graminis forma specialis tritici. In kind it is in vivo. How it is done: as §1, §2, §3, §4
Leaves of wheat seedlings of the cultivar “Kanzler” grown in pots, were sprayed to runoff point with an aqueous suspension having the concentration of active compounds stated below. 24 hours after the spray coating had dried on, dusted with spores of mildew of wheat (Erysiphe [syn. Blumeria] graminis form a specialis tritici). The test plants were then placed in a greenhouse at 20-24° C. and 60-90% relative atmospheric humidity. After 7 days, the extent of the mildew development was determined visually in % infection of the entire leaf area.

With `O=C(Cc1ccccc1)N/C(=N\OCC1CC1)c1c(OC(F)F)ccc(F)c1F` [II.14], the “Efficacy in % of the untreated control” value with Puccinia recondita (0.06 ppm in the spray liquor), in the experiment with Puccinia recondita (0.25 ppm in the spray liquor) and in the experiment on Puccinia recondita (1 ppm in the spray liquor) was 0% each time.
`CC1CCN(c2c(-c3c(F)cc(F)cc3F)c(Cl)nc3ncnn23)CC1` [I, 5-chloro-7-(4-methylpiperidin-1-yl)-6-(2,4,6-trifluoro-phenyl)-[1,2,4]triazolo[1,5-a]pyrimidine]: the “Efficacy in % of the untreated control” value is 0% in the experiment with Puccinia recondita (1 ppm in the spray liquor); 89% in the experiment with Puccinia recondita (4 ppm in the spray liquor); 0% in experiment [1] (0.25 ppm in the spray liquor, wheat cultivar Kanzler, sprayed 24 h before inoculation, 7 days); 9% in experiment [1] (1 ppm in the spray liquor, wheat cultivar Kanzler, sprayed 24 h before inoculation, 7 days); 60% in experiment [1] (4 ppm in the spray liquor, wheat cultivar Kanzler, sprayed 24 h before inoculation, 7 days).
For `O=C(Cc1ccccc1)N/C(=N\OCC1CC1)c1c(C(F)(F)F)ccc(F)c1F` [II.1], the “Efficacy in % of the untreated control” value in experiment [1] (0.25 ppm) is reported as 70%.
